The target of data set [1] is T1, Tyrosine-protein kinase BTK (Homo sapiens, UniProt Q06187). Description: Inhibition of human recombinant full length N-terminal His6-tagged BTK expressed in baculovirus infected Sf9 cells using fluorescein labeled Blk/Lyntide substrate preincubated with enzyme for 60 mins followed by further incubation with substrate and ATP for 120 mins by IMAP assay.
The target in data set [2] is T2, Epidermal growth factor receptor (Homo sapiens, UniProt P00533). Description: Inhibition of recombinant human GST-tagged EGFR (668 to 1210 residues) expressed in baculovirus expression system using Tyr 04 peptide as substrate preincubated for 1 hr by Z'-LYTE assay.
T2 sequence (P00533 whole entry, the tested form may be a part): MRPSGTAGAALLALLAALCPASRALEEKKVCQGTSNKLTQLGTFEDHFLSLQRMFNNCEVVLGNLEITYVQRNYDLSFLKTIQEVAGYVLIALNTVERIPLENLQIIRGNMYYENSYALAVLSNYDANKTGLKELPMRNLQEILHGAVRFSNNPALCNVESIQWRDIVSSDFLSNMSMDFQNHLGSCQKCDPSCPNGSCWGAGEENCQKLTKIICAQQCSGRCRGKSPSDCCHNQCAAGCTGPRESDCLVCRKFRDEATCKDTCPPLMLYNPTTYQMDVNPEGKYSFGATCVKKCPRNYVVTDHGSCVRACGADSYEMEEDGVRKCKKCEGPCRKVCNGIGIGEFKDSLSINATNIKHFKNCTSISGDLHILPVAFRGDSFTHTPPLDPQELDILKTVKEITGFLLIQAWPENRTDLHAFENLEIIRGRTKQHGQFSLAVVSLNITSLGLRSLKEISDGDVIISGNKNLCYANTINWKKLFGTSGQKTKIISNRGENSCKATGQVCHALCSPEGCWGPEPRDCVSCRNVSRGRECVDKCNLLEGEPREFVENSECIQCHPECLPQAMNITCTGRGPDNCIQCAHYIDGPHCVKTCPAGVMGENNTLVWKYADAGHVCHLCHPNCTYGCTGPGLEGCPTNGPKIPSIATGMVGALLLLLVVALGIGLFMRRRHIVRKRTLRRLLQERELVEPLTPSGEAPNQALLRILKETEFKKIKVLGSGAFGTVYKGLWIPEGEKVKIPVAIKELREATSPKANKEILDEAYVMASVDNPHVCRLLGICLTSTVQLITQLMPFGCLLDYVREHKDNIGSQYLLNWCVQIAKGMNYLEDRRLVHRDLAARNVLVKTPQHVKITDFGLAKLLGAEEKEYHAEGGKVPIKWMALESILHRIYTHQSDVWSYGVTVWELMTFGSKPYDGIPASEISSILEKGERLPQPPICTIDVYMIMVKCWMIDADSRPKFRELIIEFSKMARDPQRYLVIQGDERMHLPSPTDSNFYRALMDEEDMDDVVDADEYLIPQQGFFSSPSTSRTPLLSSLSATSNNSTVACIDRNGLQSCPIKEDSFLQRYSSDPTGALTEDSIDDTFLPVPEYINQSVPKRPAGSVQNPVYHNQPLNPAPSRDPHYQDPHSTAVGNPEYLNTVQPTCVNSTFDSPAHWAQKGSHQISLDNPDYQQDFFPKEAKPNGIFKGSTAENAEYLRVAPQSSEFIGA
In data set [3] the test system is Blood. Description: Inhibition of mouse anti-human anti-IgD-stimulated CD69 cell surface expression in human whole blood preincubated for 2 hrs followed by anti-human anti-IgD stimulation for 18 hrs by flow cytometric analysis. It is filed as functional, tissue-based.
Data set [4] has as its target T1, Tyrosine-protein kinase BTK. Description: Inhibition of His-tagged recombinant human His-tagged full length BTK expressed in baculovirus expression system using Tyr01 peptide as substrate preincubated for 1 hr by Z'lyte assay.
The target in data set [5] is T3, Tyrosine-protein kinase TXK (Homo sapiens, UniProt P42681).
T3 sequence (P42681 whole entry): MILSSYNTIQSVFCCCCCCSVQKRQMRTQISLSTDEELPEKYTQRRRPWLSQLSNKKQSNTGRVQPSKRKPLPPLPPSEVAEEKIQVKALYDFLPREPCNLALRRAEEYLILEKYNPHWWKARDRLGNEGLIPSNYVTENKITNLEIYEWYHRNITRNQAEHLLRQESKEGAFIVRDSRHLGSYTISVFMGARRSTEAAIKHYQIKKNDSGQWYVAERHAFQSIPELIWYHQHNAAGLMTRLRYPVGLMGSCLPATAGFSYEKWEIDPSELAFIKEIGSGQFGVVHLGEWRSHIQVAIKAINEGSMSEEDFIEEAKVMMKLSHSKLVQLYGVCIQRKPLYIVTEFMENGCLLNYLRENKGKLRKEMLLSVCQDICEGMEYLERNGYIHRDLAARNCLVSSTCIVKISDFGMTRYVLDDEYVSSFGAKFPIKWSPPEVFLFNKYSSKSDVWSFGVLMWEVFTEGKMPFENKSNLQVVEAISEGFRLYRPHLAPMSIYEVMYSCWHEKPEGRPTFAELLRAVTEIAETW
Description: Inhibition of recombinant human N-terminal GST-tagged TXK (260 to 527 residues) expressed in baculovirus expression system using tyrosine-6 peptide as substrate preincubated for 1 hr in presence of ATP by Z'-LYTE assay.

Data set [6] has as its target Receptor tyrosine-protein kinase erbB-2 (Homo sapiens, UniProt P04626). The experiment in a line: Inhibition of His-tagged human recombinant ERBB2 (676 to 1255 residues) expressed in baculovirus expression system using Tyr 06 as substrate preincubated for 1 hr in presence of ATP by Z'-LYTE assay.
Data set [7] addresses T2, Epidermal growth factor receptor. Description: Inhibition of EGFR phosphorylation in human A431 cells. It counts as cell-based.
The nature of data set [8]: In vivo inhibition of CD69 expression in po dosed mouse. It is filed as functional.
A short description of data set [9]: Inhibition of goat anti-human IgM F(ab')-stimulated CD86 cell surface expression in human PBMC preincubated for 2 hrs followed by anti-human IgM stimulation for 18 hrs by flow cytometric analysis. It counts as functional, tissue-based.
Data set [10] has as its system Blood. The experiment in a line: Inhibition of mouse anti-human anti-IgD-stimulated CD86 cell surface expression in human whole blood preincubated for 2 hrs followed by anti-human anti-IgD stimulation for 18 hrs by flow cytometric analysis. It is filed as functional, tissue-based.
For another data set, the target named is EGFR (phosphorylation) (Homo sapiens, UniProt P00533). The experiment in a line: Inhibition of EGFR phosphorylation in human A431 cells at 10000 nM relative to control. It counts as cell-based.
Sequence of EGFR (phosphorylation) (P00533 whole entry): as the sequence (P00533 whole entry, the tested form may be a part) above

Consider three molecules from ChEMBL document CHEMBL4725253, “Discovery of quinoline-based irreversible BTK inhibitors” (Bioorg Med Chem Lett, 2020).

Sequence of Receptor tyrosine-protein kinase erbB-2 (P04626 whole entry, the tested form may be a part): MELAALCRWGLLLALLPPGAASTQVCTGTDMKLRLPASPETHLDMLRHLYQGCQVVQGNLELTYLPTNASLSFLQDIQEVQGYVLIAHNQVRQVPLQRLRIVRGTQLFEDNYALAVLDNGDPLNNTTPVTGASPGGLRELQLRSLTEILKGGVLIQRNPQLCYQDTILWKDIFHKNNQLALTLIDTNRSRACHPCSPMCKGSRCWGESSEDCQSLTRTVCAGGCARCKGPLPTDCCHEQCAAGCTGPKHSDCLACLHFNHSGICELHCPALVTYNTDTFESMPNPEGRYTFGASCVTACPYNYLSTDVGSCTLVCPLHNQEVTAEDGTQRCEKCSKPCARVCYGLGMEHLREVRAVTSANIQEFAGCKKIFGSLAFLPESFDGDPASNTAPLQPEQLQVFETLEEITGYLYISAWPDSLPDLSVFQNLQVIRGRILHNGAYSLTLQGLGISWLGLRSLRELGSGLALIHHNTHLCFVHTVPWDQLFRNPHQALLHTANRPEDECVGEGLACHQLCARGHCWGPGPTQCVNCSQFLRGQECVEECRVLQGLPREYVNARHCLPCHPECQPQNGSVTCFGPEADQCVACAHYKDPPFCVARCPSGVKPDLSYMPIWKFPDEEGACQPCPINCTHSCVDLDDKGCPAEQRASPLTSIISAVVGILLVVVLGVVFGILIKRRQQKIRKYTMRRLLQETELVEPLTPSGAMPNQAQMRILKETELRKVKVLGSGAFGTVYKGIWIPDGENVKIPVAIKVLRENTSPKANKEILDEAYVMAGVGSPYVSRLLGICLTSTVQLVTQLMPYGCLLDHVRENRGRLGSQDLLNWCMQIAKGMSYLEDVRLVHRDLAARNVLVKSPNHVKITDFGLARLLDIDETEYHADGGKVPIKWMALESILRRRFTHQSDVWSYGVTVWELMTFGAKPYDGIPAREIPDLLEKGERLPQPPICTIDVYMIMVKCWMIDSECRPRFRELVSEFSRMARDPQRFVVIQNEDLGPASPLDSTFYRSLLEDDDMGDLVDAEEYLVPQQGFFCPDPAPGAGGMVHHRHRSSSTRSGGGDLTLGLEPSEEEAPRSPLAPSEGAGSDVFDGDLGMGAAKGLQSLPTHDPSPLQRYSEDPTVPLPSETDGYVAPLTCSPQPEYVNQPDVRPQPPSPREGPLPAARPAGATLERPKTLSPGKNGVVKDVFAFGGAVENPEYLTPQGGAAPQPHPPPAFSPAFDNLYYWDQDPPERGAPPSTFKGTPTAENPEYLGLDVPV
T1 sequence (Q06187 whole entry, the tested form may be a part): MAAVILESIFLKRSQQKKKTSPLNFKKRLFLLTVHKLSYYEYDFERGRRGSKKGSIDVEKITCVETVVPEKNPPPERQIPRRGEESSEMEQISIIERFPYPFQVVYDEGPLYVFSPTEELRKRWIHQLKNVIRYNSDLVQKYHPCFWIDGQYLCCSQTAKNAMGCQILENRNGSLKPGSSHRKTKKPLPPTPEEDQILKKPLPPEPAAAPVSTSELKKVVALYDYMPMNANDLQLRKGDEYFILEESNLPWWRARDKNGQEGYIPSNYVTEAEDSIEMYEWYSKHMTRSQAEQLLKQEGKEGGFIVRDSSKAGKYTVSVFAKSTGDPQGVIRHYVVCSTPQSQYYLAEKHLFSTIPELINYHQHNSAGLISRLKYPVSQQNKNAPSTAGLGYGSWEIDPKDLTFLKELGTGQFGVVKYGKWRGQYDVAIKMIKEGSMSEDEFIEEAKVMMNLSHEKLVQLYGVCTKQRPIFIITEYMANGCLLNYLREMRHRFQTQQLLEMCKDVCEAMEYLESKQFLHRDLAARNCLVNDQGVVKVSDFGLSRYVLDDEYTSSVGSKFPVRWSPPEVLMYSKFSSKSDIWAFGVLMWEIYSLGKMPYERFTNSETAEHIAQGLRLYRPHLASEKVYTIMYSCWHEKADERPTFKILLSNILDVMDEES

With `CC#CC(=O)Nc1cc2c(Oc3ccc(C(=O)Nc4ccccn4)cc3)ccnc2cc1OCCN1CCOCC1`, the 50% inhibitory concentration (IC50) in data set [1] is 0.54 nM; in [2], greater than 1000 nM; in data set [4] it was 8.3 nM; in [5], 229 nM; in data set [6] it was greater than 1000 nM. The EC50 is 74 nM with Blood [3] and greater than 1000 nM in [7].

With `COc1cc2nccc(Oc3ccc(C(=O)Nc4ccccn4)cc3)c2cc1NC(=O)C#CCCN1CCOCC1`, the IC50 in data set [1] was 1.6 nM; in data set [2], 138 nM; in data set [4] it was 1.5 nM; in data set [5], 19 nM; in data set [6], 41 nM. The EC50 was 13 nM in the data set on Blood [3] and greater than 1000 nM in data set [7]. Also, the ED50 in data set [8] is 13 mg/kg.

With `C=CC(=O)Nc1ccc2nccc(Oc3ccc(C(=O)Nc4cc(CC)ccn4)cc3)c2c1`, the IC50 in [1] turned out to be 1.2 nM; in data set [2], 958 nM; in data set [4], 4 nM; in [5] it was 294 nM; in data set [6], 268 nM. Moreover, the EC50 in [9] was found to be 21 nM; in the data set with Blood [10], 267 nM; in the data set with Blood [3] it was 167 nM. Also, on EGFR (phosphorylation), at 10 µM the inhibition was 36%.
